For 7 compounds, T/C results are on record in PubChem BioAssay AID180 (DTP/NCI, 2004).

This assay concerns BDF1 mice, Adenocarcinoma 755 s.c., tumor weight T/C. Description: NCI In Vivo Anticancer Drug Screen. Data for tumor model Adenocarcinoma 755 (subcutaneous) in B6D2F1 (BDF1) mice. The conditions noted are these: endpoint: mean tumor weight, higher = larger tumour. The essentials:
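Transplantable tumor implanted; mice dosed with compound or vehicle; survival or tumor size recorded; ratio of treated to vehicle control reported.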

The mark [1] stands for this setting: dose: 12.5 mg/kg/injection, schedule: Q01DX011 (ip), vehicle: methylcellulose (MC).
The mark [2] stands for this setting: dose: 25.0 mg/kg/injection, schedule: Q01DX011 (ip), vehicle: methylcellulose (MC).

“And” between values parts separate entries of the source, which are not always exact repeats. Equal values may be shown once.

As for `C[C@@H]1C[C@@H]([C@H](O)CC2CC(=O)NC(=O)C2)C(=O)[C@@H](C)C1`, the T/C (usually the ratio of treated to control) reads like this: (dose: 5.0 mg/kg/injection, schedule: Q#A X022 (ip), vehicle: alkali diluted with saline) 103 % of control; (dose: 6.63 mg/kg/injection, schedule: Q01DX011 (ip), vehicle: carboxymethylcellulose (CMC)) 51 % of control; (dose: 7.5 mg/kg/injection, schedule: Q01DX011 (ip), vehicle: methylcellulose (MC)) 89 % of control; (dose: 8.63 mg/kg/injection, schedule: Q01DX011 (ip), vehicle: carboxymethylcellulose (CMC)) 87 % of control; (dose: 9.5 mg/kg/injection, schedule: Q01DX011 (ip), vehicle: carboxymethylcellulose (CMC)) 103 % of control and 117 % of control; (dose: 10.0 mg/kg/injection, schedule: Q01DX011 (im), vehicle: alkali diluted with saline) 79 % of control. The T/C reads like this: (dose: 10.0 mg/kg/injection, schedule: Q01DX011 (ip), vehicle: alkali diluted with saline) 66 % of control and 75 % of control; (dose: 10.0 mg/kg/injection, schedule: Q01DX011 (oral), vehicle: alkali diluted with saline) 62 % of control; (dose: 10.0 mg/kg/injection, schedule: Q01DX011 (sc), vehicle: steriod suspending solution) 99 % of control; (dose: 10.0 mg/kg/injection, schedule: Q#A X022 (ip), vehicle: alkali diluted with saline) 64 % of control; under setting [1], 71 % of control; (dose: 13.25 mg/kg/injection, schedule: Q01DX011 (ip), vehicle: carboxymethylcellulose (CMC)) 120 % of control. The T/C is 38 % of control (dose: 13.8 mg/kg/injection, schedule: Q01DX011 (ip), vehicle: carboxymethylcellulose (CMC)); 49 % of control (dose: 15.0 mg/kg/injection, schedule: Q01DX011 (ip), vehicle: methylcellulose (MC)); 50 % of control and 65 % of control (dose: 17.25 mg/kg/injection, schedule: Q01DX011 (ip), vehicle: carboxymethylcellulose (CMC)); 56 % of control and 59 % of control (dose: 19.0 mg/kg/injection, schedule: Q01DX011 (ip), vehicle: carboxymethylcellulose (CMC)); 91 % of control (dose: 20.0 mg/kg/injection, schedule: Q01DX006 (iv), vehicle: alkali diluted with saline); 76 % of control (dose: 20.0 mg/kg/injection, schedule: Q01DX011 (im), vehicle: alkali diluted with saline). In addition, the T/C is, setting by setting: (dose: 20.0 mg/kg/injection, schedule: Q01DX011 (oral), vehicle: alkali diluted with saline) 63 % of control; (dose: 20.0 mg/kg/injection, schedule: Q01DX011 (sc), vehicle: steriod suspending solution) 48 % of control; (dose: 23.0 mg/kg/injection, schedule: Q01DX011 (ip), vehicle: carboxymethylcellulose (CMC)) 31 % of control; under setting [2], 47 % of control; (dose: 26.5 mg/kg/injection, schedule: Q01DX011 (ip), vehicle: carboxymethylcellulose (CMC)) 50 % of control; (dose: 30.0 mg/kg/injection, schedule: Q01DX011 (ip), vehicle: methylcellulose (MC)) 33 % of control. In addition, the T/C is 117 % of control (dose: 30.0 mg/kg/injection, schedule: Q03DX004 (ip), vehicle: alkali diluted with saline); 12 % of control and 13 % of control (dose: 34.5 mg/kg/injection, schedule: Q01DX011 (ip), vehicle: carboxymethylcellulose (CMC)); 27 % of control and 32 % of control (dose: 38.0 mg/kg/injection, schedule: Q01DX011 (ip), vehicle: carboxymethylcellulose (CMC)); 95 % of control and 76 % of control (dose: 40.0 mg/kg/injection, schedule: Q01DX006 (iv), vehicle: alkali diluted with saline); 18 % of control and 42 % of control (dose: 40.0 mg/kg/injection, schedule: Q01DX011 (oral), vehicle: alkali diluted with saline); 48 % of control (dose: 40.0 mg/kg/injection, schedule: Q01DX011 (sc), vehicle: steriod suspending solution). The T/C was 22 % of control and 36 % of control (dose: 40.0 mg/kg/injection, schedule: Q#A X022 (ip), vehicle: alkali diluted with saline); 88 % of control (dose: 50.0 mg/kg/injection, schedule: Q01DX001 (ip), vehicle: alkali diluted with saline); 13 % of control (dose: 50.0 mg/kg/injection, schedule: Q01DX011 (ip), vehicle: methylcellulose (MC)); 6 % of control (dose: 60.0 mg/kg/injection, schedule: Q01DX011 (ip), vehicle: methylcellulose (MC)); 47 % of control (dose: 60.0 mg/kg/injection, schedule: Q03DX004 (ip), vehicle: alkali diluted with saline); 92 % of control and 93 % of control (dose: 80.0 mg/kg/injection, schedule: Q01DX006 (iv), vehicle: alkali diluted with saline). Also, the T/C was 4 % of control and 9 % of control (dose: 80.0 mg/kg/injection, schedule: Q01DX011 (im), vehicle: alkali diluted with saline); 9 % of control and 21 % of control (dose: 80.0 mg/kg/injection, schedule: Q01DX011 (ip), vehicle: alkali diluted with saline); 63 % of control (dose: 100.0 mg/kg/injection, schedule: Q01DX001 (ip), vehicle: alkali diluted with saline); 41 % of control (dose: 120.0 mg/kg/injection, schedule: Q03DX004 (ip), vehicle: alkali diluted with saline); 24 % of control (dose: 160.0 mg/kg/injection, schedule: Q01DX006 (iv), vehicle: alkali diluted with saline); 186 % of control (dose: 200.0 mg/kg/injection, schedule: Q01DX001 (ip), vehicle: alkali diluted with saline). Also, the T/C (dose: 400.0 mg/kg/injection, schedule: Q01DX001 (ip), vehicle: alkali diluted with saline) was 89 % of control.
As for `Clc1ccc(CSc2ncnc3c2ncn3C2CCCCO2)cc1` (stereo not drawn), the T/C reads like this: (dose: 20.0 mg/kg/injection, schedule: Q01DX011 (ip), vehicle: methylcellulose (MC)) 84 % of control; (dose: 65.0 mg/kg/injection, schedule: Q01DX011 (ip), vehicle: methylcellulose (MC)) 31 % of control.
On to `COC(=O)C1=CO[C@H](C)[C@@H]2CN3CCc4c([nH]c5ccccc45)[C@@H]3C[C@H]12`, for which the T/C by setting is: (dose: 9.0 mg/kg/injection, schedule: Q01DX011 (ip), vehicle: carboxymethylcellulose (CMC)) 95 % of control; (dose: 17.5 mg/kg/injection, schedule: Q01DX011 (ip), vehicle: carboxymethylcellulose (CMC)) 92 % of control; (dose: 35.0 mg/kg/injection, schedule: Q01DX011 (ip), vehicle: carboxymethylcellulose (CMC)) 116 % of control; (dose: 70.0 mg/kg/injection, schedule: Q01DX011 (ip), vehicle: carboxymethylcellulose (CMC)) 93 % of control.
For `CCCCOP(=O)(N1CC1C)N1CC1C` (stereo not drawn), the T/C is, setting by setting: (dose: 2.0 mg/kg/injection, schedule: Q01DX011 (ip), vehicle: saline) 92 % of control and 96 % of control and 114 % of control; (dose: 32.0 mg/kg/injection, schedule: Q01DX011 (ip), vehicle: saline) 25 % of control.
`C=CC(COC(C)=O)N1CC1` (stereo not drawn): the T/C by setting is: (dose: 3.25 mg/kg/injection, schedule: Q01DX011 (ip), vehicle: saline) 58 % of control and 76 % of control; (dose: 3.25 mg/kg/injection, schedule: Q01DX011 (oral), vehicle: saline) 193 % of control; (dose: 7.5 mg/kg/injection, schedule: Q01DX011 (oral), vehicle: saline) 228 % of control; (dose: 15.0 mg/kg/injection, schedule: Q01DX011 (oral), vehicle: saline) 157 % of control; (dose: 30.0 mg/kg/injection, schedule: Q01DX011 (oral), vehicle: saline) 19 % of control.
Take `CC/C(=C(\CC)c1ccc(OC)cc1)c1ccc(O)cc1`: the T/C by setting is: (dose: 15.0 mg/kg/injection, schedule: Q01DX011 (sc), vehicle: steriod suspending solution) 68 % of control; (dose: 30.0 mg/kg/injection, schedule: Q01DX011 (sc), vehicle: steriod suspending solution) 69 % of control; (dose: 60.0 mg/kg/injection, schedule: Q01DX011 (sc), vehicle: steriod suspending solution) 40 % of control; (dose: 120.0 mg/kg/injection, schedule: Q01DX011 (sc), vehicle: other) 37 % of control and 42 % of control; (dose: 120.0 mg/kg/injection, schedule: Q01DX011 (sc), vehicle: steriod suspending solution) 26 % of control.
For `CC(C)Cn1cnc2c(Sc3c([N+](=O)[O-])ncn3C)nc(N)nc21`, the T/C (dose: 0.2 mg/kg/injection, schedule: Q01DX011 (ip), vehicle: methylcellulose (MC)) is 71 % of control; the T/C (dose: 0.39 mg/kg/injection, schedule: Q01DX011 (ip), vehicle: methylcellulose (MC)) was 70 % of control; the T/C (dose: 0.78 mg/kg/injection, schedule: Q01DX011 (ip), vehicle: methylcellulose (MC)) is 68 % of control; the T/C (dose: 3.12 mg/kg/injection, schedule: Q01DX011 (ip), vehicle: methylcellulose (MC)) is 48 % of control; the T/C (dose: 6.25 mg/kg/injection, schedule: Q01DX011 (ip), vehicle: methylcellulose (MC)) was 22 % of control; the T/C under setting [1] is 7 % of control. The T/C under setting [2] was 2 % of control.
